{"source": "patent US6339101B1", "about": "“N-linked sulfonamides of N-heterocyclic carboxylic acids or isosteres for vision and memory disorders” (GPI NIL Holdings, Inc., priority 1998, dated 2002)", "key": {"[1]": {"system": "retinal ganglion cell axons", "experiment": "Protection of retinal ganglion cell axons from degeneration following optic nerve transection (Table V)", "format": "in vivo", "settings": "± SEM", "excerpt": "Efficacy of representative compounds from different immunophilin ligand series in protecting retinal ganglion cell axons from degeneration following optic nerve transection is set forth in Table V."}, "[2]": {"experiment": "Clearance (Table V comments)", "format": "in vitro ADME"}, "FKBP12": {"target": "FKBP12 (Homo sapiens, UniProt P62942)", "sequence (P62942 whole entry, species assumed)": "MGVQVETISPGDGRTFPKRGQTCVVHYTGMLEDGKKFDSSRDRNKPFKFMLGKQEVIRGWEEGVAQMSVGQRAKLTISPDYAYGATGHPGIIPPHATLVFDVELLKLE", "experiment": "Ki test: inhibition of peptidyl-prolyl isomerase (rotamase) activity of FKBP", "format": "biochemical", "settings": "apparent Ki; read-out: Ki rotomase", "source_text": "The inhibition of the prolyl peptidyl cis-trans isomerase activity of FKBP may be measured as an indicator of this affinity.\nThese values are obtained as apparent Ki's.\nThe cis-trans isomerization of an alanine-proline bond in a model substrate, N-succinyl-Ala-Ala-Pro-Phe-p-nitroanilide, is monitored spectrophotometrically in a chymotrypsin-coupled assay, which releases para-nitroanilide from the trans form of the substrate. The inhibition of this reaction caused by the addition of different concentrations of inhibitor is determined, and the data is analyzed as a change in first-order rate constant as a function of inhibitor concentration to yield the apparent Ki values.\nIn a plastic cuvette are added 950 ml of ice cold assay buffer (25 mM HEPES, pH 7.8, 100 nM NaCl), 10 ml of FKBP (2.5 mM in 10 mM Tris-Cl pH 7.5, 100 mM NaCl, 1 mM dithiothreitol), 25 ml of chymotrypsin (50 mg/ml in 1 mM HCl) and 10 ml of test compound at various concentrations in dimethyl sulfoxide. The reaction is initiated by the addition of 5 ml of substrate (succinyl-Ala-Phe-Pro-Phe-para-nitroanilide, 5 mg/ml in 2.35 mM LiCl in trifluoroethanol).\nThe absorbance at 390 nm versus time is monitored for 90 seconds using a spectrophotometer and the rate constants are determined from the absorbance versus time data files."}, "[3]": {"system": "retinal ganglion cells and optic nerve axons", "experiment": "In vivo retinal ganglion cell and optic nerve axon tests after optic nerve transection (Table 1)", "set-up": "species or system Sprague Dawley rats", "settings": "90 days after optic nerve transection", "excerpt": "All eyes and optic nerve stumps were removed."}, "[4]": {"system": "retinal ganglion cells, optic nerve axons and myelin", "experiment": "Retinal ischemia by raised intraocular pressure", "format": "in vivo, rats", "settings": "28 days after 1 hour retinal ischemia", "excerpt": "Retinal ganglion cells were retrogradely labeled in adult rats by bilateral injection of fluorogold in their lateral geniculate nuclei. Labeled ganglion cells in the normal rat retina appear as white profiles against the dark background (FIG. 1A). Complete retinal ischemia was produced by infusing normal saline solution into the retinal vitreous cavity of each eye until the intraocular pressure exceeded arterial blood pressure. 28 days after the ischemic episode extensive degeneration of retinal ganglion cell was evidenced by massive reduction in the density of fluorogold labeled cells (FIG. 1B).\nOptic nerves from vehicle treated cases examined 28 days after a 1 hour retinal ischemia episode are characterized by a decreased density of optic nerve axons and the appearance of numerous degenerating myelin figures (bright white filled circles)."}, "[5]": {"experiment": "Morris watermaze spatial learning and memory in aged rodents", "format": "in vivo, C57BL/6N-Nia mice", "settings": "aged impaired mice, 10 mg/kg daily, after 3 weeks of dosing; vs young mice", "excerpt": "The Morris watermaze is widely used for assessing spatial memory formation and retention in experimental animals. The test depends on the animal's ability to utilize spatial visual information in order to locate a submerged escape platform in a water tank. It is important that the tank itself be as devoid of specific visual features as possible—thus, it is always circular in shape, the sides are kept smooth and in uniform dull colors, and the water is rendered opaque with nontoxic watercolor pigment or powdered milk. This is to ensure that the animal navigates only by the use of more distant visual cues, or by the use of intra-maze cues specifically provided by the experimenter.\nThe animals' path, speed, and swim time are tracked with a ceiling camera for later computerized analysis. Over the course of several successive trials, spatial learning can therefore be defined as a drop of distance swum, or time elapsed, from placement in the tank until escape onto the invisible platform. […]\nRetention testing began after 3 weeks of dosing using the same methods as the acquisition phase. Swim Distances (cm) were analyzed in a 7×5 ANOVA including Groups and Blocks (1-5) as factors in the analysis, treating Blocks as a repeated measure."}, "retina": {"system": "retina", "experiment": "Streptozotocin induced diabetes, retinal neovascularization and neuron loss", "format": "in vivo", "settings": "28 day treatment beginning 8 weeks after onset of streptozotocin diabetes"}, "retinal ganglion cells": {"system": "retinal ganglion cells", "experiment": "Example 18: optic nerve transection, ganglion cell survival and axonal dying back", "format": "in vivo, Sprague Dawley rats", "settings": "10 mg/kg/day s.c. for 28 days; 90 days after transection", "excerpt": "Transection of the mammalian optic nerve results in a brief period of abortive regeneration, but the majority of axotomized neurons die and the axons from many persisting ganglion cells die back beyond the optic nerve head."}}}
{"compound": "O=C(SCCCc1ccccc1)C1CCCN1C(=O)NC12CC3CC(CC(C3)C1)C2", "note": "(stereo not shown) [B]", "values": [{"measurement": "RT-RGC azon density 11 days after ON Transection ( axon rescued)", "setting": "[1]", "result": "100.0% ±5.2% SEM"}]}
{"compound": "CCC(C)(C)C(=O)C(=O)N1CCC[C@H]1C(=O)O", "note": "[L]", "values": [{"measurement": "RT-RGC azon density 11 days after ON Transection ( axon rescued)", "setting": "[1]", "result": "7.8% ±3.0% SEM"}]}
{"compound": "CCC(C)(C)C(=O)C(=O)N1CCCC[C@H]1C(=O)SC(CCc1ccccc1)CCc1ccccc1", "note": "[E]", "values": [{"measurement": "Clearance", "setting": "[2]", "result": 41.8, "unit": "µL/min"}, {"measurement": "Ki", "setting": "FKBP12", "result": 20, "unit": "nM"}, {"measurement": "RT-RGC azon density 11 days after ON Transection ( axon rescued)", "setting": "[1]", "result": "56.6% ±9.4% SEM"}]}
{"compound": "CCC(C)(C)C(=O)C(=O)N1CCCC[C@H]1C(N)=O", "note": "[H]", "values": [{"measurement": "RT-RGC azon density 11 days after ON Transection ( axon rescued)", "setting": "[1]", "result": "30.3% ±8.0% SEM"}]}
{"compound": "CCC(C)(C)C(=O)C(=O)N1CCC[C@H]1C(=O)OCCCc1cccnc1", "note": "[GPI 1046]", "values": [{"measurement": "RGC Counts (mean density + SEM of Fluoro-gold labeled retinal ganglion cells in 400 μm × 400 μm gridfields)", "setting": "[3]; 10 mg/kg/day sc for 28 days", "result": "67.9 ± 5.8"}, {"measurement": "increased ON axon density (adjusted for optic nerve diameter)", "setting": "[3]; 14 days treatment", "result": 1.5, "unit": "X"}, {"measurement": "increased ON axon density (adjusted for optic nerve diameter)", "setting": "[3]; 28 days treatment", "result": 5.0, "unit": "X"}, {"measurement": "protection of optic nerve axons from degeneration", "setting": "[4]", "result": "protected the majority of optic nerve axons from degeneration"}, {"measurement": "difference between young and aged impaired GPI-1046 treated groups, retention phase", "setting": "[5]", "result": "no longer any statistically significant difference"}, {"measurement": "loss of neurons in INL and GCL", "setting": "retina", "result": "appeared to decrease the loss of neurons"}, {"measurement": "neovascularization in PR, ONL, OPL and INL of retina", "setting": "retina", "result": "reduced neovascularization"}, {"measurement": "neuronal loss in the ONL", "setting": "retina", "result": "did not appear to protect"}, {"measurement": "Ki", "setting": "FKBP12", "result": 7.5, "unit": "nM"}, {"measurement": "ganglion cell population spared", "setting": "retinal ganglion cells", "result": 25, "unit": "%"}, {"measurement": "preservation of axons of protected neurons in proximal stump", "setting": "retinal ganglion cells", "result": "preserved the axons of virtually all protected neurons"}, {"measurement": "RT-RGC azon density 11 days after ON Transection ( axon rescued)", "setting": "[1]", "result": "60.5% ±3.9 SEM"}]}
{"compound": "CCC(C)(C)C(=O)C(=O)N1CCCC[C@H]1C(=O)SCCC(c1ccccc1)c1ccccc1", "note": "[K]", "values": [{"measurement": "RT-RGC azon density 11 days after ON Transection ( axon rescued)", "setting": "[1]", "result": "13.0% ±4.2% SEM"}]}
{"compound": "CCC(C)(C)C(=O)C(=O)N1CCC[C@H]1C(=O)SCCC(c1ccccc1)c1ccccc1", "note": "[M]", "values": [{"measurement": "RT-RGC azon density 11 days after ON Transection ( axon rescued)", "setting": "[1]", "result": "−6.3", "unit": "% +3.9% SEM"}]}
{"compound": "O=C(SCCCc1ccccc1)[C@@H]1CCCN1S(=O)(=O)Cc1ccccc1", "note": "[C]", "values": [{"measurement": "RT-RGC azon density 11 days after ON Transection ( axon rescued)", "setting": "[1]", "result": "60.4% ±3.1% SEM"}]}
{"compound": "CCC(C)(C)C(=O)C(=O)N1CCS[C@H]1C(=O)OCCCc1cccnc1", "note": "[F]", "values": [{"measurement": "RT-RGC azon density 11 days after ON Transection ( axon rescued)", "setting": "[1]", "result": "55.1% ±5.9% SEM"}]}
{"compound": "CCC(C)(C)C(=O)C(=O)N1CCCC[C@H]1C(=O)O", "note": "[G]", "values": [{"measurement": "RT-RGC azon density 11 days after ON Transection ( axon rescued)", "setting": "[1]", "result": "34.0% ±4.8% SEM"}]}
{"compound": "CCC(C)(C)C(=O)C(=O)N1CCC[C@H]1C(=O)CCCCc1cccnc1", "note": "[J]", "values": [{"measurement": "RT-RGC azon density 11 days after ON Transection ( axon rescued)", "setting": "[1]", "result": "15.8% ±4.8% SEM"}]}
{"compound": "O=C(OCCCCc1ccccc1)[C@@H]1CCCCN1S(=O)(=O)Cc1ccccc1", "note": "[D]", "values": [{"measurement": "RT-RGC azon density 11 days after ON Transection ( axon rescued)", "setting": "[1]", "result": "58.4% ±6.4% SEM"}]}
